Test results from PubChem BioAssay (NCI).
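Compound exposure: 48 hours, 5 concentrations, 96-well plates. TGI marks complete inhibition of growth.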

Key:
Test in all cases: NCI anticancer screen, dose series, 48 h
786-0 renal = test system: 786-0 renal
A498 renal = test system: A498 renal
A549 NSCLC = test system: A549 NSCLC
ACHN renal = test system: ACHN renal
BT-549 breast = test system: BT-549 breast
CAKI-1 renal = test system: CAKI-1 renal
CCRF-CEM leukemia = test system: CCRF-CEM leukemia
COLO 205 colon = test system: COLO 205 colon
DMS 114 small cell lung = test system: DMS 114 small cell lung
DMS 273 small cell lung = test system: DMS 273 small cell lung
DU-145 prostate = test system: DU-145 prostate
EKVX NSCLC = test system: EKVX NSCLC
HCC-2998 colon = test system: HCC-2998 colon
HCT-116 colon = test system: HCT-116 colon
HCT-15 colon = test system: HCT-15 colon
HL-60(TB) leukemia = test system: HL-60(TB) leukemia
HOP-62 NSCLC = test system: HOP-62 NSCLC
HOP-92 NSCLC = test system: HOP-92 NSCLC
HS 578T breast = test system: HS 578T breast
HT29 colon = test system: HT29 colon
IGROV1 ovarian = test system: IGROV1 ovarian
K-562 leukemia = test system: K-562 leukemia
KM12 colon = test system: KM12 colon
LOX IMVI melanoma = test system: LOX IMVI melanoma
LXFL 529 NSCLC = test system: LXFL 529 NSCLC
M14 melanoma = test system: M14 melanoma
M19-MEL melanoma = test system: M19-MEL melanoma
MALME-3M melanoma = test system: MALME-3M melanoma
MDA-MB-231 breast = test system: MDA-MB-231 breast
MDA-MB-435 = test system: MDA-MB-435
MDA-N = test system: MDA-N
MOLT-4 leukemia = test system: MOLT-4 leukemia
NCI-H226 lung = test system: NCI-H226 lung
NCI-H23 lung = test system: NCI-H23 lung
NCI-H460 lung = test system: NCI-H460 lung
NCI-H522 lung = test system: NCI-H522 lung
NCI/ADR-RES ovarian = test system: NCI/ADR-RES ovarian
OVCAR-3 ovarian = test system: OVCAR-3 ovarian
OVCAR-4 ovarian = test system: OVCAR-4 ovarian
OVCAR-5 ovarian = test system: OVCAR-5 ovarian
OVCAR-8 ovarian = test system: OVCAR-8 ovarian
PC-3 prostate = test system: PC-3 prostate
RPMI-8226 leukemia = test system: RPMI-8226 leukemia
RXF 393 renal = test system: RXF 393 renal
RXF-631 renal = test system: RXF-631 renal
SF-268 CNS = test system: SF-268 CNS
SF-295 CNS = test system: SF-295 CNS
SF-539 CNS = test system: SF-539 CNS
SK-MEL-2 melanoma = test system: SK-MEL-2 melanoma
SK-MEL-28 melanoma = test system: SK-MEL-28 melanoma
SK-MEL-5 melanoma = test system: SK-MEL-5 melanoma
SK-OV-3 ovarian = test system: SK-OV-3 ovarian
SN12C renal = test system: SN12C renal
SNB-19 CNS = test system: SNB-19 CNS
SNB-75 CNS = test system: SNB-75 CNS
SNB-78 CNS = test system: SNB-78 CNS
SR leukemia = test system: SR leukemia
SW-620 colon = test system: SW-620 colon
T-47D breast = test system: T-47D breast
TK-10 renal = test system: TK-10 renal
U251 CNS = test system: U251 CNS
UACC-257 melanoma = test system: UACC-257 melanoma
UACC-62 melanoma = test system: UACC-62 melanoma
UO-31 renal = test system: UO-31 renal
XF 498 CNS = test system: XF 498 CNS
DLD-1 colon = test system: DLD-1 colon
KM20L2 colon = test system: KM20L2 colon

C=C1C(=O)C=C2C=C3C(=O)C(C)(C)C[C@]3(O)C12C (some centres undefined)
TGI (786-0 renal): 3.41 µM | TGI (A498 renal): 23.2 µM | TGI (A549 NSCLC): 40.4 µM | TGI (ACHN renal): 4.53 µM | TGI (BT-549 breast): 3.05 µM | TGI (CAKI-1 renal): 3.99 µM | TGI (CCRF-CEM leukemia): 1.37 µM | TGI (COLO 205 colon): 3.53 µM | TGI (DMS 114 small cell lung): 3.61 µM | TGI (DMS 273 small cell lung): 14 µM | TGI (DU-145 prostate): 33.9 µM | TGI (EKVX NSCLC): 51.2 µM | TGI (HCC-2998 colon): 34.4 µM | TGI (HCT-116 colon): 9 µM | TGI (HCT-15 colon): 11.7 µM | TGI (HL-60(TB) leukemia): 2.54 µM | TGI (HOP-62 NSCLC): 53.3 µM | TGI (HOP-92 NSCLC): 3.24 µM | TGI (HS 578T breast): 43.8 µM | TGI (HT29 colon): 11.1 µM | TGI (IGROV1 ovarian): 36.5 µM | TGI (K-562 leukemia): 3.98 µM | TGI (KM12 colon): 32.1 µM | TGI (LOX IMVI melanoma): 11 µM | TGI (LXFL 529 NSCLC): 2.64 µM | TGI (M14 melanoma): 3.04 µM | TGI (M19-MEL melanoma): 11.3 µM | TGI (MALME-3M melanoma): 3.65 µM | TGI (MDA-MB-231 breast): 7.59 µM | TGI (MDA-MB-435): 32.6 µM | TGI (MDA-N): 13.5 µM | TGI (MOLT-4 leukemia): 2.28 µM | TGI (NCI-H226 lung): 45.6 µM | TGI (NCI-H23 lung): 12.9 µM | TGI (NCI-H460 lung): 38.2 µM | TGI (NCI-H522 lung): 3.38 µM | TGI (NCI/ADR-RES ovarian): > 100 µM | TGI (OVCAR-3 ovarian): 4.49 µM | TGI (OVCAR-4 ovarian): 12.7 µM | TGI (OVCAR-5 ovarian): 21.4 µM | TGI (OVCAR-8 ovarian): 29.3 µM | TGI (PC-3 prostate): 10.2 µM | TGI (RPMI-8226 leukemia): 3.2 µM | TGI (RXF 393 renal): 3.33 µM | TGI (RXF-631 renal): 30.9 µM | TGI (SF-268 CNS): 28.2 µM | TGI (SF-295 CNS): 45.7 µM | TGI (SF-539 CNS): > 57.5 µM | TGI (SK-MEL-2 melanoma): 33.2 µM | TGI (SK-MEL-28 melanoma): 6.76 µM | TGI (SK-MEL-5 melanoma): 19 µM | TGI (SK-OV-3 ovarian): 38.1 µM | TGI (SN12C renal): 23.9 µM | TGI (SNB-19 CNS): 44.5 µM | TGI (SNB-75 CNS): 31.4 µM | TGI (SNB-78 CNS): 21 µM | TGI (SR leukemia): 2.28 µM | TGI (SW-620 colon): 3.23 µM | TGI (T-47D breast): 5.98 µM | TGI (TK-10 renal): 3.42 µM | TGI (U251 CNS): 34 µM | TGI (UACC-257 melanoma): 9.13 µM | TGI (UACC-62 melanoma): 17.8 µM | TGI (UO-31 renal): 14 µM | TGI (XF 498 CNS): 3.56 µM

CC(=O)O[C@H]1CCC2[C@@H]3CCC4C(=O)c5oncc5C[C@]4(C)C3CC[C@@]21C (some centres undefined)
TGI (786-0 renal): > 100 µM | TGI (A498 renal): > 100 µM | TGI (A549 NSCLC): > 100 µM | TGI (ACHN renal): > 100 µM | TGI (CCRF-CEM leukemia): > 100 µM | TGI (COLO 205 colon): > 100 µM | TGI (DLD-1 colon): > 100 µM | TGI (DMS 114 small cell lung): > 100 µM | TGI (DMS 273 small cell lung): > 100 µM | TGI (EKVX NSCLC): > 100 µM | TGI (HCC-2998 colon): > 100 µM | TGI (HCT-15 colon): > 100 µM | TGI (HL-60(TB) leukemia): > 100 µM | TGI (HOP-62 NSCLC): > 100 µM | TGI (HOP-92 NSCLC): > 100 µM | TGI (HT29 colon): > 100 µM | TGI (IGROV1 ovarian): > 100 µM | TGI (K-562 leukemia): > 100 µM | TGI (KM12 colon): > 100 µM | TGI (KM20L2 colon): > 100 µM | TGI (LOX IMVI melanoma): > 100 µM | TGI (LXFL 529 NSCLC): > 100 µM | TGI (M14 melanoma): > 100 µM | TGI (M19-MEL melanoma): > 100 µM | TGI (MALME-3M melanoma): > 100 µM | TGI (MOLT-4 leukemia): > 100 µM | TGI (NCI-H23 lung): > 100 µM | TGI (NCI-H460 lung): > 100 µM | TGI (OVCAR-3 ovarian): > 100 µM | TGI (OVCAR-4 ovarian): > 100 µM | TGI (OVCAR-5 ovarian): > 100 µM | TGI (OVCAR-8 ovarian): > 100 µM | TGI (RPMI-8226 leukemia): > 100 µM | TGI (RXF 393 renal): > 100 µM | TGI (SF-268 CNS): > 100 µM | TGI (SF-295 CNS): > 100 µM | TGI (SK-MEL-2 melanoma): > 100 µM | TGI (SK-MEL-28 melanoma): > 100 µM | TGI (SK-MEL-5 melanoma): > 100 µM | TGI (SK-OV-3 ovarian): > 100 µM | TGI (SN12C renal): > 100 µM | TGI (SNB-75 CNS): > 100 µM | TGI (SNB-78 CNS): > 100 µM | TGI (SW-620 colon): > 100 µM | TGI (TK-10 renal): > 100 µM | TGI (U251 CNS): > 100 µM | TGI (UACC-257 melanoma): > 100 µM | TGI (UACC-62 melanoma): > 100 µM | TGI (XF 498 CNS): > 100 µM
